Results as given in US12643886B2 (Ontario Institute for Cancer Research (OICR), priority 2021, dated 2026).

Experiments:
NUAK2 (h) = target: T1, NUAK2 (h) (Homo sapiens, UniProt Q9H093); assay: NUAK2 enzymatic assay (radiometric, Eurofins); assay type: biochemical; settings: full-length recombinant enzyme
T1 construct: This assay was done radiometrically using full-length, recombinant enzyme; purchased Eurofins
T1 sequence (Q9H093 1-628): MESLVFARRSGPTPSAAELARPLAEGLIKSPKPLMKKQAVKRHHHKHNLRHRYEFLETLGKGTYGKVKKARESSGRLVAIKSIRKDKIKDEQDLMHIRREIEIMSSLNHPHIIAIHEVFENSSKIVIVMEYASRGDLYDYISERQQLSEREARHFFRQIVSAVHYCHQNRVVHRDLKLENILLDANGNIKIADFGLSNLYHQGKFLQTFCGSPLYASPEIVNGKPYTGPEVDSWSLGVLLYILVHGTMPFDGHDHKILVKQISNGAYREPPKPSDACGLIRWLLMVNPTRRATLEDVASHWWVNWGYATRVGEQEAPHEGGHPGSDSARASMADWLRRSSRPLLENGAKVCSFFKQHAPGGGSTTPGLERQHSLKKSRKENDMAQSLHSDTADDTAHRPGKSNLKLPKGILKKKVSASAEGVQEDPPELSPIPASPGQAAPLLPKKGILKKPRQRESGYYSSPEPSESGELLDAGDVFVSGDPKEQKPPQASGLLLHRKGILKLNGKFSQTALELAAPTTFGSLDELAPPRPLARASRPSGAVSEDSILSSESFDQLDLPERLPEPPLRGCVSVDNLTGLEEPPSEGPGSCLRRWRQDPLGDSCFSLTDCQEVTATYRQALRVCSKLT
How it was run: (§1)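 Full-length recombinant NUAK2 incubated 40 min at room temperature in 8 mM MOPS pH 7.0, 0.2 mM EDTA, 10 mM magnesium acetate, 300 μM peptide substrate and 33P-ATP. Stopped with 0.5% phosphoric acid; filter-bound label counted by scintillation. IC50 reported as ranges; NUAK1 and Aurora A served as counter-screens.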

MDA-MB-231 cells = assay: Tumor cell growth inhibition assay (ATPlite, 5 days); assay type: cell-based; settings: Homo sapiens, 120 h; breast tumor cell line MDA-MB-231, 5 days
Procedure: MDA-MB-231 cells were seeded into a 384-well plate at 1,000 cells/well in 50 μl medium (Alpha-MEM containing 10% FBS, […] Normocin, Invivogen and […] Gentamycin, Invitrogen). Plates were then incubated overnight for the cells to attach. An HP D300 digital dispenser was used to dose cells with DMSO or test compounds across a 16-point range of concentrations (high dose of 10 uM to low dose of 5 nM). Plates were incubated in a humidified 5% CO2 incubator at 37° C. After 5 days, plates were removed from the incubator and equilibrated to room temperature. An equal volume of ATPlite assay reagent was then added to each well, and samples processed according to manufacturer's instructions (Perkin Elmer). Luminescent signals were then measured using an Envision plate reader equipped with a US-Luminescence detector.

[1] = tested on: Clover-YAP expressing MDA-MB-231 cells; assay: Cell-based YAP/TAZ localization assay (live imaging of Clover-YAP); settings: MDA-MB-231 breast cancer cell line, FIG. 1
Procedure: Compounds of the application were tested for their ability to inhibit localization of YAP/TAZ to the nucleus of cells using an assay generally described in Nature Communications, 2018, 9:3510. Live cell imaging of Clover-YAP expressing MDA-MB-231 cells was carried out using a custom WAVE-FX-X1 spinning disc confocal system (Quorum Technologies) with a modified Yokogawa CSU-X1 scanhead on an AxioObserver Z1 inverted microscope (Carl Zeiss) with a ×40 NA 1.2 Plan Apochromat (Carl Zeiss) objective. Cells were plated in a 35 mm glass-bottom dish (Mat-Tek, P35G-1.5-14-C) and were maintained in a stage-top incubator at 37° C. and 5% CO2 during imaging. Cells were cultured in phenol-red free RPMI medium (Thermo Fisher Scientific, 11835030) with 5% FBS and 200 nM SiR-DNA (Spirochrom, SC007) was added 1 h prior to imaging to visualize the nuclei. Localization of Clover-YAP was monitored every 10 min for 2 h. Volocity software was used for image acquisition and processing.

NUAK1 = target: T2, NUAK1 (Homo sapiens, UniProt O60285); assay: Counter-screen against NUAK1; assay type: biochemical
T2 sequence (O60285 1-661): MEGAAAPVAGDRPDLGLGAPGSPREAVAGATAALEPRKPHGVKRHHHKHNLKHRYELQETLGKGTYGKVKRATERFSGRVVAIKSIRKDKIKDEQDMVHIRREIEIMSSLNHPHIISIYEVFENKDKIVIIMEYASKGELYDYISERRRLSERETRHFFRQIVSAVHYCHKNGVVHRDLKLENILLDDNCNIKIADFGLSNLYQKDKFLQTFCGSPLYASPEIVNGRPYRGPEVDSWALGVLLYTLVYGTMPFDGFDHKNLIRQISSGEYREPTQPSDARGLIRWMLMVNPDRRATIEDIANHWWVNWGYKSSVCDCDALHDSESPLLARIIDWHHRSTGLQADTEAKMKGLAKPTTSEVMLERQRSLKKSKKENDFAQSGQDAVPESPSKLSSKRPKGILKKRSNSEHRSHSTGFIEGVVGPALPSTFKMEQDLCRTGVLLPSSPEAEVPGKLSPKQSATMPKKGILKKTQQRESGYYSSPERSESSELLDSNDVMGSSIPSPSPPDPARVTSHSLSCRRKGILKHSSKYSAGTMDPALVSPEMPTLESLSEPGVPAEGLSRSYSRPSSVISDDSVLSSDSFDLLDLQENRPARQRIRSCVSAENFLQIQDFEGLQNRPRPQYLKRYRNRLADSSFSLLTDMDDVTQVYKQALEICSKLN
How it was run: as §1

Aurora A = target: T3, Aurora A (Homo sapiens, UniProt O14965); assay: Counter-screen against Aurora A; assay type: biochemical; settings: read-out: AUR-A (IC50)
T3 sequence (O14965 1-403): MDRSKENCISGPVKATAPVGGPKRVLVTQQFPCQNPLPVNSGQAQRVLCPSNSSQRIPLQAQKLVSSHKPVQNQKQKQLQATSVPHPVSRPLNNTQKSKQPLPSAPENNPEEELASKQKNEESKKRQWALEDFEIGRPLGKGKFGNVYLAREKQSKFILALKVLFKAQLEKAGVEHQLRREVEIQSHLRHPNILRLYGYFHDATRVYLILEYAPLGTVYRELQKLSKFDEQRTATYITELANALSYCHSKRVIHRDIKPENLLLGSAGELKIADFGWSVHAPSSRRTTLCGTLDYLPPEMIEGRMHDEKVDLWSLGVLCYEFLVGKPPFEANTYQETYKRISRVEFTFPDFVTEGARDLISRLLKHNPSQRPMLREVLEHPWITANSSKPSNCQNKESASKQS
How it was run: as §1

IC50 (NUAK2 (h)): 11 to 100 nM
IC50 (MDA-MB-231 cells): 32 nM
IC50 (NUAK1): 11 to 100 nM
IC50 (Aurora A): > 1000 nM
Compound: O=C1NCc2cccc(Nc3nc(Nc4ccc(N5CCNCC5)cc4OC(F)F)ncc3C(F)(F)F)c21 [Compound I-34, 7-((2-((2-(difluoromethoxy)-4-(piperazin-1-yl)phenyl)amino)-5-(trifluoromethyl)pyrimidin-4-yl)amino)isoindolin-1-one]
Inhibition of nuclear localization of YAP/TAZ [1]: potently inhibit nuclear localization of YAP/TAZ
